Assay results published in US4621077A, “Pharmacologically active biphosphonates, process for the preparation thereof and pharmaceutical compositions therefrom” (Istituto Gentili S.p.A., priority 1982, dated 1986).
“Also recorded” adds a separate entry of the source. Where two headings read alike, the source gives them in different places.

Tests used:
[1] = in vivo; conditions: mouse, Swiss mice, read-out: DL50 (the source's name)
Protocol: For this study Swiss mice, both male and female, have been utilized: during the experiment, the animals are fed according to the method with Altromin in the form of tablets. For the oral and intraperitoneal administration, there are used 5% gum arabic solutions while saline solutions of pH 4 are used for the intravenous injections.
The preliminary values of DL50 are calculated according to a graphic method.

[2] = for product Ca++ × Pi in solution after incubation: 37° C., two days, control 29, prior to incubation 114.7
Protocol: A model system is used to evaluate the ability of the phosphonates to inhibit the formation of crystals in inorganic solutions. Three solutions are prepared according to Fleisch.
The pH is brought to 7.4 by means of potassium hydroxide. The concentration of Ca^++ was 6.7 mg%, a level similar to the calcium in blood which has been subjected to untrafiltration and the concentration of the inorganic phosphate Pi give a product Ca^++ ×Pi=80. The solution was analyzed for Ca^++ and Pi and was distributed in Erlenmeyer flasks 12 cc each. The flasks were divided in groups as follows:
and then they are incubated under stirring at 37° C. for two days.
At the end of incubation, the solutions are passed through "millipore filters" for the purpose of retaining the ctystals which are formed during the incubation; the filtrate then is analyzed for Ca^++ and Pi. The results are also reported in Table 2 as the product of Ca^++ x Pi in the solution at the end of the experiment.

[3] = tested on: skull cells; assay: cells; type: cell-based, Wistar rats; conditions: for activity at 2.5 µM / activity at 25 µM / activity at 250 µM: Rattus norvegicus, read-out: Effect on the cellular number ± S.E.M.
Protocol: (§1) Cellular culture: the cells are cultured according to the method described by Fast et al, (Biochem. J. 172, 97-107 (1978)). By way of summary, the skulls removed from Wistar rats, one day old, are digested with collagenase. The cells set free are placed on a plate with concentration of 200,000 cells per cc of medium in disks "clusters" suitable for culture, the plates having 24 wells of 1.6 cm in diameter containing 0.5 cc of medium. The cells are cultivated in the essential minimum medium containing 10% of foetal calf serum in an atmosphere of 5% CO2 at 37° up to the eighth day. The bisphosphonates are added on the first day up to the end of the experiment. The medium is changed on the first, fourth and seventh day.
The cells are counted with a Coulter counter after they have been set free from the disks by digestion with a mixture of collagenase and trypsin.

[4] = tested on: skull cells (lactate production); assay: cells; type: cell-based, Wistar rats; conditions: for activity at 2.5 µM / activity at 25 µM / activity at 250 µM: Rattus norvegicus, 16 h, read-out: Effect on the production of lactate ± S.E.M.
Protocol: as §1
On the seventh day, the medium is changed and the cells are incubated for 16 hours. The lactate produced during this period is measured in an extract in HClO4 of the medium using lactatodehydrogenase.

[5] = tested on: bone reabsorption (metaphyseal bone density); assay: Metaphyseal bone density / inhibition of bone reabsorption in rats treated for 7 days; type: in vivo; conditions: 7 days, rats
[6] = tested on: bone reabsorption and mineralization (tibia, trabecular metaphysis); type: in vivo, Wistar rats; conditions: for effect on mineralization, in words: 10 mg of P/kg / high dosage where stated; for effect on bone reabsorption, in words: rat, in vivo
Protocol: Groups of five Wistar rats of weight 180-200 grams are treated for a period of seven days with 0.1, 1.0 and 10 mg of P/kg of the following biphosphonic acids:
The animals kept as a control were administered the solvent with NaCl. All the treatments were carried out by the subcutaneous route. […] The animals were fed with Altromine 1314 containing 1.1 g/100 g P and 250 IU/100 g of vitamin D3. On the eighth day, the animals were killed and the tibia was removed and fixed in 50% ethanol. The tibiae were then dehydrated in increasing concentration of ethanol and allowed to soak in methylmethacrylate after the addition of Plastoid N. Frontal sections were removed and cut to a thickness of 70-80 μm and then the sections were submitted to microradiography. This procedure permitted to evaluate the density of the mineral in the trabecular metaphysis according to the method of Shenk et al., Calc. Tiss. Res. 11, 196-214, 1973).
One animal per group has been evaluated.

[7] = tested on: injection sites / skin; assay: Necrosis at the injection sites in rats (local skin toxicity)
Text: The symbol "x" represents a conventional score, that is "x" meand slight necrosis, "xx" means severe necrosis, "xxx" means very severe necrosis.

[8] = 0.1 mg P/kg s.c., s.c. NaCl controls 29.72
[9] = 1.0 mg P/kg s.c., s.c. NaCl controls 29.72
[10] = 2.0 mg P/kg p.o., p.o. NaCl controls 28.45

O=P(O)(O)C(Cl)(Cl)P(=O)(O)O [Cl2 MBP, dichloromethanebiphosphonic acid]
LD50 ([1]; ip): 750 mg/kg
LD50 ([1]; iv): 130 mg/kg
LD50 ([1]; po, os): > 2000 mg/kg
product Ca++ × Pi in solution after incubation ([2]; 0.5 μM): 44.0
product Ca++ × Pi in solution after incubation ([2]; 2.5 μM): 60.4
product Ca++ × Pi in solution after incubation ([2]; 5.0 μM): 73.6
effect on the number of cells, in words [3]: causes a decrease in the number of cells
activity at 2.5 µM ([3]; 2.5 μM): 103 ± 0.7%
activity at 25 µM ([3]; 25 μM): 86.4 ± 2.1%
activity at 250 µM ([3]; 250 μM): 54.5 ± 1.9%
effect on the production of lactate, in words [4]: diminishes it
activity at 2.5 µM ([4]; 2.5 μM): 87.5 ± 4%
activity at 25 µM ([4]; 25 μM): 67.1 ± 2.8%
activity at 250 µM ([4]; 250 μM): 16.9 ± 2.2%
metaphysical density [5, 8]: 38.21 % volume of calcified tissue
metaphysical density [5, 9]: 47.00 % volume of calcified tissue
metaphysical density [5, 10]: 31.20 % volume of calcified tissue
metaphysical density ([5]; 10.0 mg P/kg s.c., s.c. NaCl controls 29.72): 52.65 % volume of calcified tissue

NCCCCCC(O)(P(=O)(O)O)P(=O)(O)O [AHEX BP, 6-amino-1-hydroxyhexane-1,1-biphosphonic acid]
LD50 ([1]; ip): 125 mg/kg
LD50 ([1]; iv): 75 mg/kg
LD50 ([1]; po, os): > 2000 mg/kg
product Ca++ × Pi in solution after incubation ([2]; 0.05 μM): 30.0
product Ca++ × Pi in solution after incubation ([2]; 0.25 μM): 37.5
product Ca++ × Pi in solution after incubation ([2]; 0.5 μM): 59.6
product Ca++ × Pi in solution after incubation ([2]; 2.5 μM): 92.6
product Ca++ × Pi in solution after incubation ([2]; 5.0 μM): 95.3
activity at 2.5 µM ([3]; 2.5 μM): 93.3 ± 3%
activity at 25 µM ([3]; 25 μM): 95.2 ± 2.2%
activity at 250 µM ([3]; 250 μM): 87 ± 3.4%
activity at 2.5 µM ([4]; 2.5 μM): 109 ± 6%
activity at 25 µM ([4]; 25 μM): 108 ± 4.5%
activity at 250 µM ([4]; 250 μM): 165 ± 7.7%
effect on mineralization, in words [6]: strong inhibition of mineralization; also recorded: exhibits high inhibition
effect on bone reabsorption, in words [6]: active on the reabsorption with a result slightly superior to Cl2 MBP
metaphysical density ([5]; 0.01 mg P/kg s.c., s.c. NaCl controls 29.72): 38.12 % volume of calcified tissue
metaphysical density [5, 8]: 46.96 % volume of calcified tissue
metaphysical density [5, 9]: 54.93 % volume of calcified tissue
metaphysical density [5, 10]: 34.69 % volume of calcified tissue
necrosis at the injection sites ([7]; 0.01 mg P/kg, 1 day): .0.
necrosis at the injection sites ([7]; 0.01 mg P/kg, 2 day): .0.
necrosis at the injection sites ([7]; 0.01 mg P/kg, 3 day): .0.
necrosis at the injection sites ([7]; 0.01 mg P/kg, 4 day): .0.
necrosis at the injection sites ([7]; 0.01 mg P/kg, 5 day): .0.
necrosis at the injection sites ([7]; 0.01 mg P/kg, 6 day): .0.
necrosis at the injection sites ([7]; 0.01 mg P/kg, 7 day): .0.
necrosis at the injection sites ([7]; 0.1 mg P/kg, 1 day): .0.
necrosis at the injection sites ([7]; 0.1 mg P/kg, 2 day): .0.
necrosis at the injection sites ([7]; 0.1 mg P/kg, 3 day): .0.
necrosis at the injection sites ([7]; 0.1 mg P/kg, 4 day): .0.
necrosis at the injection sites ([7]; 0.1 mg P/kg, 5 day): .0.
necrosis at the injection sites ([7]; 0.1 mg P/kg, 6 day): .0.
necrosis at the injection sites ([7]; 0.1 mg P/kg, 7 day): .0.
necrosis at the injection sites ([7]; 1 mg P/kg, 1 day): .0.
necrosis at the injection sites ([7]; 1 mg P/kg, 2 day): .0.
necrosis at the injection sites ([7]; 1 mg P/kg, 3 day): .0.
necrosis at the injection sites ([7]; 1 mg P/kg, 4 day): .0.
necrosis at the injection sites ([7]; 1 mg P/kg, 5 day): .0.
necrosis at the injection sites ([7]; 1 mg P/kg, 6 day): .0.
necrosis at the injection sites ([7]; 1 mg P/kg, 7 day): .0.
necrosis at the injection sites ([7]; 10 mg P/kg, 1 day): .0.
necrosis at the injection sites ([7]; 10 mg P/kg, 2 day): .0.
necrosis at the injection sites ([7]; 10 mg P/kg, 5 day): xxx
necrosis at the injection sites ([7]; 10 mg P/kg, 6 day): xxx
necrosis at the injection sites ([7]; 10 mg P/kg, 7 day): xxx
death of animals ([7]; 10 mg P/kg, 8 day): animals died spontaneously

O=P(O)(O)C(F)(F)P(=O)(O)O [F2 MBP, difluoromethanebiphosphonic acid]
LD50 ([1]; ip): 450 mg/kg
LD50 ([1]; iv): 70 mg/kg
LD50 ([1]; po, os): > 2000 mg/kg
product Ca++ × Pi in solution after incubation ([2]; 0.5 μM): 44.6
product Ca++ × Pi in solution after incubation ([2]; 2.5 μM): 58.5
product Ca++ × Pi in solution after incubation ([2]; 5.0 μM): 72.0
inhibitory activity on the formation and growth of crystals of apatite ([2]; in vitro): inhibits the growth in vitro of the crystals of apatite
effect on the number of cells, in words [3]: no effect or a very small effect
activity at 2.5 µM [3]: 88.1 ± 1.4%
activity at 25 µM [3]: 92.4 ± 1.9%
activity at 250 µM [3]: 99.3 ± 2%
effect on the production of lactate, in words [4]: no effect
activity at 2.5 µM [4]: 112 ± 4.4%
activity at 25 µM [4]: 106 ± 3.9%
activity at 250 µM [4]: 99.7 ± 4.7%
effect on mineralization, in words [6]: no effect on the bone reabsorption or on the bone mineralization
effect on bone reabsorption, in words [6]: no effect on the bone reabsorption
